Measured values reported in patent US6818663B2, “Diaminothiazoles” (Hoffmann-La Roches, priority 2002, dated 2004).

What was measured:
Format in all cases: biochemical
human cyclin E-CDK2 = human cyclin E-CDK2 (Homo sapiens, UniProt P24941); test: FlashPlate kinase assay, cyclin E-CDK2, Rb substrate; settings: recombinant cyclin E-CDK2, Rb phosphorylation, 1 μM ATP
Description: (§1) To determine inhibition of Cdk4, Cdk2 and Cdk1 activity, kinase assays were conducted using FlashPlate™ assays (NEN™-Life Science Products). FlashPlate assays were performed using recombinant human cyclin B-CDK1, human cyclin E-CDK2 or human cyclin D1-CDK4 complexes. GST-cyclinE (GST-cycE), CDK2, GST-cyclinB (GST-cycB), CDK1, GST-CDK4 and cyclin D1 (cycD1) cDNA clones in baculovirus vectors were provided by Dr. W. Harper at the Baylor College of Medicine, Houston, Tex. Proteins were co-expressed in High Five™ insect cells and the complex was purified on glutathione Sepharose resin (Pharmacia, Piscataway, N.J.) as previously described (Harper, J. W. et al. Cell 1993, 75, 805-816). A 6×-Histidine tagged truncated form of retinoblastoma (Rb) protein (amino acid 386-928) was used as the substrate for the cycD1-CDK4, cycB-CDK1 and the cycE-CDK2 assays (the expression plasmid was provided by Dr. Veronica Sullivan, Department of Molecular Virology, Roche Research Centre, Welwyn Garden City, United Kingdom). The Rb protein is a natural substrate for phosphorylation by CDK4, CDK2 and CDK1 (see Herwig and Strauss Eur. J. Biochem. Vol. 246 (1997) pp. 581-601 and the references cited therein).
(§2) The expression of the 62 Kd protein was under the control of an IPTG inducible promoter in an M15 E. coli strain. Cells were lysed by sonication and purification was carried out by binding lysates at pH 8.0 to a Ni-chelated agarose column pretreated with 1 mM imidazole. The resin was then washed several times with incrementally decreasing pH buffers to pH 6.0, and eluted with 500 mM imidazole. Eluted protein was dialysed against 20 mM HEPES pH 7.5, 30% glycerol, 200 mM NaCl, and 1 mM DTT. Purified Rb fusion protein stocks were quantitated for protein concentration, aliquoted, and stored at −70° C.
(§3) For all three kinase assays reported herein, 96-well FlashPlates were coated with Rb protein at 10 μg/ml, using 100 μl per well. Plates were incubated at 4° C. overnight or at room temperature for 3 hours on a shaker. To control for nonspecific phosphorylation, one row of wells was coated with 100 μl/well coating buffer (20 mM HEPES, 0.2 M NaCl). Plates were then washed twice with wash buffer (0.01% Tween 20 in phosphate-buffered saline). Compounds to be tested (“test compounds”) were added to the wells at 5×final concentration. Reactions were initiated by immediate addition of 40 μl reaction mix (25 mM HEPES, 20 mM MgCl2, 0.002% Tween 20, 2 mM DTT, 1 μM ATP, 4 nM ^33P-ATP) and a sufficient amount of enzyme to give counts that were at least 10-fold above background. Plates were incubated at room temperature on a shaker for 30 minutes. Plates were washed four times with the wash buffer, sealed, and counted on the TopCount scintillation counter (Packard Instrument Co., Downers Grove, Ill.]. The percent inhibition of Rb phosphorylation, which is a measure of the inhibition of CDK activity, was determined according to the following formula: [formula]
(§4) where “test compound” refers to the average counts per minute of the test duplicates, “nonspecific” refers to the average counts per minute when no CyclinD/Cdk4, etc., was added, and “total” refers to the average counts per minute when no compound was added. The IC50 value is the concentration of test compound that reduces by 50% the protein-kinase induced incorporation of the radiolabel under the test conditions described.

human cyclin B-CDK1 = human cyclin B-CDK1 (Homo sapiens, UniProt P06493); test: FlashPlate kinase assay, cyclin B-CDK1, Rb substrate; settings: recombinant cyclin B-CDK1, Rb phosphorylation, 1 μM ATP
Chain of human cyclin B-CDK1 (P06493 whole entry): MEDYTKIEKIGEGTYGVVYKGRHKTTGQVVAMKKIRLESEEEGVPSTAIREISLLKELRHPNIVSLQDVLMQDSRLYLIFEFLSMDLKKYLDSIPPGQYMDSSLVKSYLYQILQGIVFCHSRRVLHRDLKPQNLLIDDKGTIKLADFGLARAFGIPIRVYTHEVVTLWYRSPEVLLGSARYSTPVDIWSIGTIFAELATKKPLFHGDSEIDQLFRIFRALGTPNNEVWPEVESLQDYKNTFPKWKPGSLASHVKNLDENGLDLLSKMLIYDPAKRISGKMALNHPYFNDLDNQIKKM
Chain of human cyclin B-CDK1 (P14635 whole entry partner): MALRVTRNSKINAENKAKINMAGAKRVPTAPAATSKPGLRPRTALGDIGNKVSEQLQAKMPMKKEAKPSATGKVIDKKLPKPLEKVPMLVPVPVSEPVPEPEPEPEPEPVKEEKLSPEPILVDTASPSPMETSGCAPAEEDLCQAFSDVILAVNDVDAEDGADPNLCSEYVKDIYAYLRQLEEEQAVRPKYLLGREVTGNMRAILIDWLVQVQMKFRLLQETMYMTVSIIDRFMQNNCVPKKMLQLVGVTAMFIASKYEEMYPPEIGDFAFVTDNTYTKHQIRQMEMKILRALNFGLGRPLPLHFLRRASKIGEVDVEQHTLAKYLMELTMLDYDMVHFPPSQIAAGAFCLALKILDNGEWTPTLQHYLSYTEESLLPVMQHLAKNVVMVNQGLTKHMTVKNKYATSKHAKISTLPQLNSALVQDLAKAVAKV
Description: as §1, §2, §3, §4

human cyclin D1-CDK4 = human cyclin D1-CDK4 (Homo sapiens, UniProt P11802); test: FlashPlate kinase assay, cyclin D1-CDK4, Rb substrate; settings: recombinant cyclin D1-CDK4, Rb phosphorylation, 1 μM ATP
Chain of human cyclin D1-CDK4 (P11802 whole entry): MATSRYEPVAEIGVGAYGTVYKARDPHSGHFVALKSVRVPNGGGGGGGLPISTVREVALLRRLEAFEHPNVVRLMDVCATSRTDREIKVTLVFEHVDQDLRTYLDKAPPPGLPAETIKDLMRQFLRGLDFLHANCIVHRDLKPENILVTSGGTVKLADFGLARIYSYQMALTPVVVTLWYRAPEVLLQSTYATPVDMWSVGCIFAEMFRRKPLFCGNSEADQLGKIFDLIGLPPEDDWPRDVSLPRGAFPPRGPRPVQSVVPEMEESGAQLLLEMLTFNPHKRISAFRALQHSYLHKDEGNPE
Chain of human cyclin D1-CDK4 (P24385 whole entry partner): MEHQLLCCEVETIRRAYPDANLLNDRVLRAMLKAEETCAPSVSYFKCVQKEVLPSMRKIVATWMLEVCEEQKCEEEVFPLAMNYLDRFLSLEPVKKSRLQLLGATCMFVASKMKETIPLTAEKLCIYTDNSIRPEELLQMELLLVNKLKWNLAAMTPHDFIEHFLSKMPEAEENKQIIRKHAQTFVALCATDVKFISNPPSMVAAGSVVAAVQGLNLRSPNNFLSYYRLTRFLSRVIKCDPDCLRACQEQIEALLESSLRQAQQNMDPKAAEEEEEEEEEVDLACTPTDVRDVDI
Description: as §1, §2, §3, §4

IC50 (human cyclin E-CDK2)	IC50 (human cyclin B-CDK1)	IC50 (human cyclin D1-CDK4)	SMILES
1170 nM	440 nM	38 nM	Nc1nc(Nc2ccc(OC[C@@H]3CCCN3)cc2)sc1C(=O)c1cccc(F)c1 [Example 3, [4-Amino-2-[4-(pyrrolidin-2-ylmethoxy)-phenylamino]-thiazol-5-yl]-(3-fluoro-phenyl)-methanone]
850 nM	613 nM	92 nM	CN(C)C(C)(C)COc1ccc(Nc2nc(N)c(C(=O)c3cccc(F)c3)s2)cc1 [Example 39, [4-Amino-2-[4-(2-dimethylamino-2-methyl-propoxy)-phenylamino]-thiazol-5-yl]-(3-fluoro-phenyl)-methanone]
1140 nM	416 nM	65 nM	Nc1nc(Nc2ccc(OC3CCCNC3)cc2)sc1C(=O)c1cccc(F)c1 (stereo not drawn) [Example 46, [4-Amino-2-[4-(piperidin-3-yloxy)-phenylamino]-thiazol-5-yl]-(3-fluoro-phenyl)-methanone]
1080 nM	196 nM	73 nM	Nc1nc(Nc2ccc(OCCN3CCOCC3)cc2)sc1C(=O)c1cccc(F)c1 [Example 47, [4-Amino-2-[4-(2-morpholin-4-yl-ethoxy)-phenylamino]-thiazol-5-yl]-(3-fluoro-phenyl)-methanone]
3160 nM	1550 nM	85 nM	COc1ccc(C(=O)c2sc(Nc3ccc(OCCN4CCCC4)cc3)nc2N)cc1[N+](=O)[O-] [Example 48, [4-Amino-2-[4-(2-pyrrolidin-1-yl-ethoxy)-phenylamino]-thiazol-5-yl]-(4-methoxy-3-nitro-phenyl)-methanone]
4300 nM	2390 nM	88 nM	COc1ccc(C(=O)c2sc(Nc3ccc(OCCN(C)C)cc3)nc2N)cc1[N+](=O)[O-] [Example 49, [4-Amino-2-[4-(2-dimethylamino-ethoxy)-phenylamino]-thiazol-5-yl]-(4-methoxy-3-nitro-phenyl)-methanone]
3200 nM	610 nM	85 nM	Nc1nc(Nc2ccc(OCCN3CCOCC3)cc2)sc1C(=O)c1ccc2c(c1)OCCO2 [Example 55, [4-Amino-2-[4-(2-morpholin-4-yl-ethoxy)-phenylamino]-thiazol-5-yl]-(2,3-dihydro-benzo[1,4]dioxin-6-yl)-methanone]
3020 nM	155 nM	29 nM	Nc1nc(Nc2ccc(OCCN3CCOCC3)cc2)sc1C(=O)c1ccc2c(c1)OCO2 [Example 56, [4-Amino-2-[4-(2-morpholin-4-yl-ethoxy)-phenylamino]-thiazol-5-yl]-benzo[1,3]dioxol-5-yl-methanone]
5600 nM	434 nM	63 nM	CN(C)CCOc1ccc(Nc2nc(N)c(C(=O)c3ccc4c(c3)OCO4)s2)cc1 [Example 59, [4-Amino-2-[4-(2-dimethylamino-ethoxy)-phenylamino]-thiazol-5-yl]-benzo[1,3]dioxol-5-yl-methanone]
1700 nM	847 nM	79 nM	CN(C)CCOc1ccc(Nc2nc(N)c(C(=O)c3cccc(C#N)c3)s2)cc1 [Example 60, 3-[4-Amino-2-[4-(2-dimethylamino-ethoxy)-phenylamino]-thiazole-5-carbonyl]-benzonitrile]
5990 nM	1170 nM	101 nM	Cc1ccc(C(=O)c2sc(Nc3ccc(OCCN(C)C)cc3)nc2N)cc1F [Example 73, [4-Amino-2-[4-(2-dimethylamino-ethoxy)-phenylamino]-thiazol-5-yl]-(3-fluoro-4-methyl-phenyl)-methanone]
5130 nM	869 nM	92 nM	Cc1ccc(C(=O)c2sc(Nc3ccc(OC[C@@H](C)N(C)C)cc3)nc2N)cc1F [Example 74, (R)-[4-Amino-2-[4-(2-dimethylamino-propoxy)-phenylamino]-thiazol-5-yl]-(3-fluoro-4-methyl-phenyl)-methanone]
4240 nM	578 nM	97 nM	Cc1ccc(C(=O)c2sc(Nc3ccc(OCC(C)(C)N(C)C)cc3)nc2N)cc1F [Example 75, [4-Amino-2-[4-(2-dimethylamino-2-methyl-propoxy)-phenylamino]-thiazol-5-yl]-(3-fluoro-4-methyl-phenyl)-methanone]
1500 nM	1020 nM	71 nM	CCN1CCCC(Oc2ccc(Nc3nc(N)c(C(=O)c4ccc(O)c(F)c4)s3)cc2)C1 (stereo not drawn) [Example 82, [4-Amino-2-[4-(1-ethyl-piperidin-3-yloxy)-phenylamino]-thiazol-5-yl]-(3-fluoro-4-hydroxy-phenyl)-methanone]
1640 nM	977 nM	97 nM	CCN1CCC(Oc2ccc(Nc3nc(N)c(C(=O)c4ccc(C)c(F)c4)s3)cc2)C1 (stereo not drawn) [Example 86, [4-Amino-2-[4-(1-ethyl-pyrrolidin-3-yloxy)-phenylamino]-thiazol-5-yl]-(3-fluoro-4-methyl-phenyl)-methanone]
957 nM	451 nM	74 nM	CCN1CCCC(Oc2ccc(Nc3nc(N)c(C(=O)c4ccc(C)c(F)c4)s3)cc2)C1 (stereo not drawn) [Example 87, [4-Amino-2-[4-(1-ethyl-piperidin-3-yloxy)-phenylamino]-thiazol-5-yl]-(3-fluoro-4-methyl-phenyl)-methanone]
130 nM	228 nM	43 nM	CCCc1cc(C(=O)c2sc(Nc3ccc(OC4CCNC4)cc3)nc2N)ccc1O (stereo not drawn) [Example 90, [4-Amino-2-[4-(pyrrolidin-3-yloxy)-phenylamino]-thiazol-5-yl]-(4-hydroxy-3-propyl-phenyl)-methanone; Compound With Acetic Acid]
817 nM	471 nM	67 nM	Cc1cccc(C(=O)c2sc(Nc3ccc(OC4CCNC4)cc3)nc2N)c1 (stereo not drawn) [Example 91, [4-Amino-2-[4-(pyrrolidin-3-yloxy)-phenylamino]-thiazol-5-yl]-m-tolyl-methanone; Compound With Acetic Acid]
2040 nM	682 nM	86 nM	Cc1ccc(C(=O)c2sc(Nc3ccc(OC4CCNC4)cc3)nc2N)cc1F (stereo not drawn) [Example 94, [4-Amino-2-[4-(pyrrolidin-3-yloxy)-phenylamino]-thiazol-5-yl]-(3-fluoro-4-methyl-phenyl)-methanone; Compound With Acetic Acid]
3740 nM	1720 nM	96 nM	COc1ccc(C(=O)c2sc(Nc3ccc(OC4CCCNC4)cc3)nc2N)cc1F (stereo not drawn) [Example 97, [4-Amino-2-[4-(piperidin-3-yloxy)-phenylamino]-thiazol-5-yl]-(3-fluoro-4-methoxy-phenyl)-methanone]
1230 nM	523 nM	34 nM	CCc1cccc(C(=O)c2sc(Nc3ccc(OC4CCCNC4)cc3)nc2N)c1 (stereo not drawn) [Example 98, [4-Amino-2-[4-(piperidin-3-yloxy)-phenylamino]-thiazol-5-yl]-(3-ethyl-phenyl)-methanone]
		70 nM	CCN(CC)CCOc1ccc(Nc2nc(N)c(C(=O)c3ccc4c(c3)C(C)CO4)s2)cc1 (stereo not drawn) [Example 139, [4-Amino-2-[4-(2-diethylamino-ethoxy)-phenylamino]-thiazol-5-yl]-(3-methyl-2,3-dihydro-benzofuran-5-yl)-methanone]
	6430 nM	100 nM	CCN(CC)CCOc1ccc(Nc2nc(N)c(C(=O)c3ccc4c(c3)CCO4)s2)cc1 [Example 142, [4-Amino-2-[4-(2-diethylamino-ethoxy)-phenylamino]-thiazol-5-yl]-(2,3-dihydro-benzofuran-5-yl)-methanone]
